Source: a melting point compilation (Tetko et al.; mined from patent text by program, amines drawn as free bases though some values may be those of a salt)

`CC(C)c1cc(OCCO[Si](C(C)C)(C(C)C)C(C)C)cc2c1C(=O)N(CCl)S2(=O)=O` gave a melting point of 85 to 86 °C.
In the case of `ICCC(c1ccccc1)c1ccccc1`, the melting point was 51 to 55 °C.
With `Cc1cc(C)c(-c2n[nH]c(=O)c3ccccc23)c(C)c1` the melting point was 259 to 262 °C.
With `Cc1sc(-c2ccc(C(F)(F)F)cc2)nc1CCOc1ccc(CCC(=O)O)cc1` the melting point was 142 to 147 °C.
`N=C(Cc1ccccc1-n1cnc2cnc3ccc(-c4ccccc4)cc3c21)NO` showed a melting point of 253 to 254 °C.
Compound `COc1ccc(CCC(C)N(Cc2ccccc2)CC(O)c2ccc(OCc3ccccc3)c(N)c2)cc1OC` (stereo unspecified) has a melting point of 115 °C.
Compound `CCCCOc1cc(=O)n(C)c2ccccc12` has a melting point of 77 to 80 °C.
In the case of `CCC1(c2ccccc2)C(=O)N(CCO)C(=O)N(CCO)C1=O`, the melting point was 107 to 109 °C.
For `CCOC=Cc1c(OC)c(=O)[nH]c2cc(Cl)ccc2c1=O`, the melting point was 202 to 204 °C.
`CCc1cc(N(CC)C(=O)N2CCN(c3cc(C)cc(C)c3)CC2)c(OC)nc1C` gave a melting point of 84 to 85 °C.
With `COC(=O)NCCCCC1CCSS1` (stereo unspecified) the melting point was 31 to 32 °C.
Work on `CC(C)(C)OC(=O)N1CCc2cc(OCc3ccccc3)c(OCc3ccccc3)cc2C1Cc1ccc([N+](=O)[O-])cc1` (stereo unspecified) yielded a melting point of 150 to 152 °C.
In the case of `CCCCCCCN(CCN1CCN(CCCSc2nc3ccccc3o2)CC1)C(=O)Nc1c(C(C)C)cccc1C(C)C`, the melting point was 93 to 94 °C.
Work on `COc1cnc(-c2cccn3nc(Nc4ccc(C5CCN(CC(=O)N(C)C)CC5)cc4)nc23)cn1` yielded a melting point of 185 to 187 °C.
In the case of `CNC(=O)c1cc(Br)cc(I)c1`, the melting point was 205 °C.
Work on `CS(=O)(=O)c1ccc(-c2sc(COc3cccc(Cl)c3)nc2-c2ccccc2F)cc1` yielded a melting point of 152 to 153 °C.
Compound `Cn1c(=O)ccc2cc(-c3cccnc3)ccc21` has a melting point of 116 to 118 °C.
Work on `CCC(C(=O)OC1C=CC=CO1)C(=O)OC1C=CC=CO1` (stereo unspecified) yielded a melting point of 90 to 92 °C.
Compound `CS(=O)(=O)c1ccc(-c2cc(S(C)(=O)=O)nn2-c2ccc(F)cc2)cc1` has a melting point of 209 to 210 °C.
Compound `CC(C)n1c(=O)oc2cc(N3C[C@H](C(N)=O)OC3=O)ccc21` has a melting point of 182 to 184 °C.
Work on `O=C1Nc2cccnc2Nc2ccsc21` yielded a melting point of 273 to 279 °C.
In the case of `O=S(=O)(c1ccccc1)c1ccc(N2CCNCC2)cn1`, the melting point was 126 to 127 °C.
In the case of `Cc1oc(-c2ccco2)nc1COc1ccc(CC(=O)O)cc1`, the melting point was 139 to 140 °C.
In the case of `[N-]=[N+]=NCCCc1cc(-c2ccccc2)n(-c2ccc(S(N)(=O)=O)cc2)n1`, the melting point was 114 to 116 °C.
For `Cc1c(C(N)=O)oc2nn(C)c(C)c12`, the melting point was 148 to 150 °C.
`COc1ccc(C(C[N+](=O)[O-])SC(=S)N(C)C)cc1` (stereo unspecified) gave a melting point of 86 to 89 °C.
Work on `Cc1cc(=O)n(-c2cccc(Cl)c2)c2[nH]n(-c3ccccc3)c(=O)c12` yielded a melting point of 278 to 282 °C.
With `CCCNC(=O)Nc1c(C)c(C)c2c(c1C)C(c1ccc(C(C)C)cc1)CO2` (stereo unspecified) the melting point was 177 to 178 °C.
`CC1=NC(NC(=O)Nc2cccc(C#N)c2)C(=O)N(CC(=O)C(C)(C)C)c2ccccc21` (stereo unspecified) gave a melting point of 246 to 247 °C.
`COc1cc(-c2nc3ccc(O)cc3n2Cc2ccccc2Br)cc(OC)c1OC` gave a melting point of 208 °C.
Work on `CCS(=O)(=O)Nc1cc(C)cc(Cc2c[nH]cn2)c1C` yielded a melting point of 167 to 169 °C.
In the case of `C[C@H](NC(=O)c1c[nH]c2ncc(-c3cn(-c4cc(C(F)(F)F)ccc4F)cn3)nc12)C(C)(C)C`, the melting point was > 300 °C.
In the case of `CCC(=O)C(CCCCCCCOc1ccc(OCc2ccccc2)cc1)C(=O)CC`, the melting point was 54 to 55 °C.
`Cc1cc(Nc2nccc(-c3sc(N)nc3C)n2)ccc1N1CCCCC1` showed a melting point of 221 to 223 °C.
`CNC(=O)n1cnc(C(=O)NC(C)(C)C)c1N` showed a melting point of 145 to 147 °C.
`CC(=O)c1cccc(Oc2ncccc2C(=O)NCC2CCC(C(C)O)CC2)c1` (stereo unspecified) showed a melting point of 101 to 103 °C.
With `CCOC(=O)C1=CC(CF)(CF)Oc2ccc(I)cc21` the melting point was 89 to 90 °C.
For `CC(=O)ON1CC(NC(=O)OCc2ccccc2)C1=O` (stereo unspecified), the melting point was 130 to 131 °C.
In the case of `CCCc1cc(=O)n2cccc(C)c2n1`, the melting point was 59 to 60 °C.
`O=C(O)Cn1c(-c2ccccc2)ncc(NC(=O)OCc2ccccc2)c1=O` showed a melting point of 179 to 183 °C.
With `Cc1nnsc1C(=O)Nc1ccc(-n2nc(C3CC3)cc2C2CC2)c(F)c1` the melting point was 148 to 152 °C.
Compound `O=C(NCc1ccc(Cl)cc1)c1cn(CCCc2ccccc2)c2sc(CN3CCOCC3)cc2c1=O` has a melting point of 169 to 171 °C.
Work on `Nc1ncc2c(n1)N(c1cccc(CCO)c1)C(=O)N(c1ccccc1Br)C2` yielded a melting point of 154 °C.
With `O=C(Nc1nc2ccc(OCc3c(Cl)cccc3Cl)cc2s1)C1CC1` the melting point was 178 °C.
`CCOC(=O)c1cccc(O)c1O` showed a melting point of 66 to 67.2 °C.
`COC(=O)C1Oc2ccc([N+](=O)[O-])cc2O1` (stereo unspecified) showed a melting point of 90 to 92 °C.
`Cc1nc(N2CCCCC2=O)sc1C(=O)NCc1ccccc1` showed a melting point of 175 to 176 °C.
In the case of `COC(=O)c1nc2nn(-c3ccccc3)c(C)c2c(N)c1C(=O)OC`, the melting point was 190 to 191 °C.
`CCOP(=O)(COc1ccc2c(c1)[nH]c1ccccc12)OCC` gave a melting point of 159 °C.
Work on `COc1cc(N(C(C)=O)c2c(C#N)cnc3ccsc23)c(Cl)cc1Cl` yielded a melting point of 202 to 204 °C.
`CCCNc1nc(OC)ccc1[N+](=O)[O-]` showed a melting point of 69 to 70 °C.
For `CC1(c2ccc(OCc3ccccc3[Si](C)(C)C)cc2)OC(=O)N(Nc2ccccc2)C1=O` (stereo unspecified), the melting point was 112 to 114 °C.
`Cc1cc(COc2ccc(S(=O)(=O)NC[C@@H](C(=O)NO)N3CCOCC3)cc2)c2ccccc2n1` gave a melting point of 138 °C.
For `N#CCC(O)(c1ccccc1)c1ccccc1`, the melting point was 136 to 138 °C.
Compound `Cc1cc2c(-c3cccc(C(F)(F)F)c3)nc(-c3ccc(C(F)(F)F)cc3)nc2s1` has a melting point of 134 to 136 °C.
Compound `CCCCc1nc2c(N)nc3ccccc3c2n1CCNS(C)(=O)=O` has a melting point of 210 to 211 °C.
With `COc1ccc(-c2nn(Cc3ccncc3)c(=O)cc2-c2ccncc2)cc1` the melting point was 193 to 194 °C.
Work on `Cc1ccc(C(Br)=NOS(C)(=O)=O)cc1` yielded a melting point of 82.5 to 91.5 °C.
Work on `Cc1ccccc1-c1cnc2c(C(F)(F)F)cccc2c1-c1cccc(N)c1` yielded a melting point of 148 to 151 °C.
Compound `CCOC(=O)N1CCc2onc(Cl)c2C1` has a melting point of 40 to 42 °C.
For `Cc1ccnc2c(N)cc(F)cc12`, the melting point was 100 to 101 °C.
In the case of `CSCc1nn(-c2c(Cl)cc(C(F)(F)F)cc2Cl)nc1C=NC(C#N)=C(N)C#N`, the melting point was 237 to 239 °C.
`CC(=O)OC1CSC(Oc2ccc(F)nc2)C(OC(C)=O)C1OC(C)=O` (stereo unspecified) showed a melting point of 123 °C.
`CN(C)CC(=O)N1c2cc(Cl)ccc2N(C)S(=O)(=O)c2ccccc21` showed a melting point of 175 to 176 °C.
`COC(=O)c1cc(N(C)C(C)=O)c(Cl)c(N(C)C(C)=O)c1` showed a melting point of 162 to 164 °C.
For `COc1cc(C)cc(OC)c1C1=NC(NC(=O)c2cc3ccccc3[nH]2)C(=O)N(C)c2ccccc21` (single isomer, unassigned; (-)), the melting point was 135 °C.
Work on `CCOC(=O)C(=O)Nc1c([N+](=O)[O-])sc2c(Cl)cc(Cl)cc12` yielded a melting point of 177 to 180 °C.
Work on `O=C1c2ccccc2C(=O)N1CCCCI` yielded a melting point of 85 to 87 °C.
Work on `CCCCCCCCCCCC(=O)c1c(-c2ccccc2)[nH]n(-c2ccccc2)c1=O` yielded a melting point of 69 °C.
In the case of `CCC(c1ccccc1)(c1ccccc1)c1ccnc(C(N)=O)c1`, the melting point was 144 to 147 °C.
`Cc1[nH]c2c(N3CCNCC3)cccc2c1S(=O)(=O)c1ccccc1` showed a melting point of 188 to 190 °C.
